{"source": "patent US20170122958A1", "about": "“Enzymes Functional Probes” (University of Dundee, priority 2013, published 2017)", "format_in_all_cases": "binding", "key": {"[1]": {"target": "T1, Brd3(1) (Homo sapiens, UniProt Q15059)", "T1 construct": "Plasmids of the eight single BET bromodomain constructs Brd2(1), Brd2(2), Brd3(1), Brd3(2); His6 (N); made in house; host or cells: E. coli BL21(DE3)", "T1 sequence (Q15059 34-140 limits assumed)": "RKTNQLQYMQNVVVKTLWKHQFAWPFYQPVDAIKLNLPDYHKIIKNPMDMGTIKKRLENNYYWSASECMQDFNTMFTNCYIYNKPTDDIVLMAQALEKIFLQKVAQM", "assay": "ITC reverse titration of protein into compound", "conditions": "ITC 30° C., 1% DMSO", "procedure": "(§1) Results obtained were very promising, showing small shifts from 1.2° C. to a maximum of 2.6° C. for all the eight BET wild types and shifts from 5.4° C. to 13.4° C. for all the leucine to alanine mutants.\n(§2) For all mutants, protein was titrated at a concentration between 150-200 μM into a solution of the compound at a concentration of 15-20 μM. In the case of the wild types, protein was titrated at a concentration of 350-400 μM into a solution of the compound between 15-20 μM. FIG. 11 is an illustrative example of the curves obtained for the Brd3(1) bromodomain construct and its respective leucine to alanine mutant titrated into compound 11. We can easily observe a hyperbolic shape for the titration of wild type Brd3(1) into compound 11, corresponding to a low affinity interaction, while for Brd3(1)*(Leu070-Ala) we can easily observe a sharp sigmoidal behaviour corresponding to a high affinity interaction. Furthermore, there is a clear difference in the ΔH produced by each interaction. (ΔH=−22 kcal/mol vs. mutant compared to −7 kcal/mol vs. wild type).\n(§3) ITC experiments were carried out on a ITC200 instrument from MicroCal™ Experiments were conducted at 3 different temperatures 15° C., 25° C. and 30° C., while stirring at 1000 rpm. Buffers of proteins, peptide and compounds were matched to 20 mM HEPES pH 7.5 at 25° C. and 100 mM NaCl. Frozen protein was buffer exchanged as described for the DSF experiments. Each titration comprised 1 initial injection of 0.4 μl lasting 0.8 s, followed by 19 injections of 2 μl lasting 4 s each at 2 min intervals. The initial injection was discarded during data analysis. Standard and reverse titrations were conducted depending on the binding partners.\n(§4) Reverse titrations were conducted to test the binding of the known ligands and the novel chemical probes to the wild types and the mutants. Experiments were carried out either at 25° C. or 30° C. For strong binders, a concentration of 150-200 μM of the protein was injected into a solution of 15-20 μM compound. […] In cases where the compound was solubilized in dimethyl sulfoxide, DMSO concentration was adjusted to 1% both in the syringe and in the cell.\n(§5) All the data was fitted to a single binding site model using the Microcal LLC ITC200 Origin software provided by the manufacturer to yield enthalpies of binding (ΔH) and binding constants (Kas). Further thermodynamic parameters were calculated from these values (changes in entropy ΔS, changes in free energy AG and dissociation constants (Kds))."}, "[2]": {"target": "T2, brd4(1)L094A (Homo sapiens, UniProt O60885, L94A)", "T2 construct": "Plasmids of the eight single BET bromodomain constructs Brd2(1), Brd2(2), Brd3(1), Brd3(2), Brd4(1), Brd4(2), Brdt(1) and Brdt(2); His6 (N); made in house; host or cells: E. coli BL21(DE3)", "assay": "ITC reverse titration of protein into compound", "conditions": "30° C.", "procedure": "as §1, §2, §3, §4, §5"}, "[3]": {"target": "T3, brd4(2)L387A (Homo sapiens, UniProt O60885, L387A)", "T3 construct": "Plasmids of the eight single BET bromodomain constructs Brd2(1), Brd2(2), Brd3(1), Brd3(2), Brd4(1), Brd4(2), Brdt(1) and Brdt(2); His6 (N); made in house; host or cells: E. coli BL21(DE3)", "assay": "ITC reverse titration of protein into compound", "conditions": "30° C.", "procedure": "as §1, §2, §3, §4, §5"}, "[4]": {"target": "T4, brdt(1)L063A (Homo sapiens, UniProt Q58F21, L63A)", "T4 construct": "Plasmids of the eight single BET bromodomain constructs Brd2(1), Brd2(2), Brd3(1), Brd3(2), Brd4(1), Brd4(2), Brdt(1) and Brdt(2); His6 (N); made in house; host or cells: E. coli BL21(DE3)", "assay": "ITC reverse titration of protein into compound", "conditions": "30° C.", "procedure": "as §1, §2, §3, §4, §5"}, "[5]": {"target": "T2, brd4(1)L094A", "assay": "DSF thermal shift", "conditions": "mutant"}, "[6]": {"target": "T5, Brd4(1) (Homo sapiens, UniProt O60885)", "T5 construct": "Plasmids of the eight single BET bromodomain constructs Brd2(1), Brd2(2), Brd3(1), Brd3(2), Brd4(1), Brd4(2), Brdt(1) and Brdt(2); His6 (N); made in house; host or cells: E. coli BL21(DE3)", "assay": "DSF thermal shift", "conditions": "wild type"}, "[7]": {"target": "T3, brd4(2)L387A", "assay": "DSF thermal shift", "conditions": "mutant"}, "[8]": {"target": "T6, Brd4(2) (Homo sapiens, UniProt O60885)", "T6 construct": "Plasmids of the eight single BET bromodomain constructs Brd2(1), Brd2(2), Brd3(1), Brd3(2), Brd4(1), Brd4(2), Brdt(1) and Brdt(2); His6 (N); made in house; host or cells: E. coli BL21(DE3)", "assay": "DSF thermal shift", "conditions": "wild type"}}, "data": [{"smiles": "CC[C@@H](C(=O)OC)[C@@H]1N=C(c2ccc(Cl)cc2)c2cc(OC)ccc2-n2c(C)nnc21", "note": "(racemic) [Compound 11, (+−)-methyl (R)-2-((S)-6-(4-chlorophenyl)-8-methoxy-1-methyl-4H-benzo[f][1,2,4]triazolo[4,3-a][1,4]diazepin-4-yl)butanoate]", "values": [{"measurement": "ΔH wild type Brd3(1)", "setting": "[1]", "result": -7, "unit": "kcal/mol"}, {"measurement": "Selectivity factor Kd WT/Kd Leu/Ala", "setting": "[2]; brd4(1)L094A vs WT brd2(1)", "result": 206}, {"measurement": "Selectivity factor Kd WT/Kd Leu/Ala", "setting": "[2]; brd4(1)L094A vs WT brd2(2)", "result": 396}, {"measurement": "Selectivity factor Kd WT/Kd Leu/Ala", "setting": "[2]; brd4(1)L094A vs WT brd3(1)", "result": 160}, {"measurement": "Selectivity factor Kd WT/Kd Leu/Ala", "setting": "[2]; brd4(1)L094A vs WT brd3(2)", "result": 170}, {"measurement": "Selectivity factor Kd WT/Kd Leu/Ala", "setting": "[2]; brd4(1)L094A vs WT brd4(1)", "result": 292}, {"measurement": "Selectivity factor Kd WT/Kd Leu/Ala", "setting": "[2]; brd4(1)L094A vs WT brd4(2)", "result": 231}, {"measurement": "Selectivity factor Kd WT/Kd Leu/Ala", "setting": "[2]; brd4(1)L094A vs WT brdt(1)", "result": 197}, {"measurement": "Selectivity factor Kd WT/Kd Leu/Ala", "setting": "[2]; brd4(1)L094A vs WT brdt(2)", "result": 281}, {"measurement": "Selectivity factor Kd WT/Kd Leu/Ala", "setting": "[3]; brd4(2)L387A vs WT brd2(1)", "result": 45}, {"measurement": "Selectivity factor Kd WT/Kd Leu/Ala", "setting": "[3]; brd4(2)L387A vs WT brd2(2)", "result": 88}, {"measurement": "Selectivity factor Kd WT/Kd Leu/Ala", "setting": "[3]; brd4(2)L387A vs WT brd3(2)", "result": 38}, {"measurement": "Selectivity factor Kd WT/Kd Leu/Ala", "setting": "[3]; brd4(2)L387A vs WT brd4(1)", "result": 65}, {"measurement": "Selectivity factor Kd WT/Kd Leu/Ala", "setting": "[3]; brd4(2)L387A vs WT brd4(2)", "result": 51}, {"measurement": "Selectivity factor Kd WT/Kd Leu/Ala", "setting": "[3]; brd4(2)L387A vs WT brdt(1)", "result": 44}, {"measurement": "Selectivity factor Kd WT/Kd Leu/Ala", "setting": "[3]; brd4(2)L387A vs WT brdt(2)", "result": 62}, {"measurement": "Selectivity factor Kd WT/Kd Leu/Ala", "setting": "[4]; brdt(1)L063A vs WT brd2(1)", "result": 48}, {"measurement": "Selectivity factor Kd WT/Kd Leu/Ala", "setting": "[4]; brdt(1)L063A vs WT brd2(2)", "result": 92}, {"measurement": "Selectivity factor Kd WT/Kd Leu/Ala", "setting": "[4]; brdt(1)L063A vs WT brd3(1)", "result": 37}, {"measurement": "Selectivity factor Kd WT/Kd Leu/Ala", "setting": "[4]; brdt(1)L063A vs WT brd3(2)", "result": 40}, {"measurement": "Selectivity factor Kd WT/Kd Leu/Ala", "setting": "[4]; brdt(1)L063A vs WT brd4(1)", "result": 67}, {"measurement": "Selectivity factor Kd WT/Kd Leu/Ala", "setting": "[4]; brdt(1)L063A vs WT brd4(2)", "result": 54}, {"measurement": "Selectivity factor Kd WT/Kd Leu/Ala", "setting": "[4]; brdt(1)L063A vs WT brdt(1)", "result": 46}, {"measurement": "Selectivity factor Kd WT/Kd Leu/Ala", "setting": "[4]; brdt(1)L063A vs WT brdt(2)", "result": 65}, {"measurement": "ΔTm Brd4(1)* (L094A)", "setting": "[5]", "result": "10.0 ± 0.2", "unit": "K"}, {"measurement": "ΔTm Brd4(1)", "setting": "[6]", "result": "1.5 ± 0.4", "unit": "K"}, {"measurement": "ΔTm Brd4(2)* (L387A)", "setting": "[7]", "result": "7.0 ± 0.1", "unit": "K"}, {"measurement": "ΔTm Brd4(2)", "setting": "[8]", "result": "1.5 ± 0.0", "unit": "K"}]}]}
